Results reported in patent US20260159512A1, “BCAT2 INHIBITORS” (AGIOS PHARMACEUTICALS, INC., priority 2021, published 2026).

Columns and labels:
Details in all cases: average where tested multiple times
hBCAT1 = biological target: T1, hBCAT1 (Homo sapiens, UniProt P54687); experiment: BCAT1 in vitro enzyme inhibition assay (resazurin/diaphorase-coupled fluorescence); type: biochemical
T1 sequence (P54687 1-386): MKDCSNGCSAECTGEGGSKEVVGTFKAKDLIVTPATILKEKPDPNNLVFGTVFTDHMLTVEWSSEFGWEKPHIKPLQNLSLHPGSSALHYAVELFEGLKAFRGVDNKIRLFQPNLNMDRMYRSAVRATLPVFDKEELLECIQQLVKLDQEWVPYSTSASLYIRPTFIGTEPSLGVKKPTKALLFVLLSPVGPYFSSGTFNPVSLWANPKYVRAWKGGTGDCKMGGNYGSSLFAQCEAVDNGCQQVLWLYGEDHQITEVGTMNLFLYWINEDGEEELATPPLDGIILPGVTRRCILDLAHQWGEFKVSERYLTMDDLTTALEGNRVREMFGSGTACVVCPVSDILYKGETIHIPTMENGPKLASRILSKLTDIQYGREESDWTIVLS
Outline: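 Ten-point, 3-fold compound series (top final 100 μM, delivered 1:50 from 50× DMSO stocks) tested against hBCAT1. Inhibition detected via diaphorase-coupled resazurin fluorescence, duplicate wells, with values from repeated runs averaged.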

BCAT2 [1] = biological target: T2, BCAT2 (Homo sapiens, UniProt O15382); experiment: BCAT2 in vitro cell inhibition using engineered A549 cells (KMV cell assay, 13C6-KMV by LC-MS/MS); type: cell-based; design: The result was an engineered A549 cell line that expressed endogenous BCAT2; endogenous in cells; host or cells: A549 cells with MUT and BCAT1 knocked out by CRISPR/CAS9; key to BCAT2 Cell Inhibition: A: less than or equal to 0.100 μM; B: greater than 0.100 and less than or equal to 0.500 μM; C: greater than 0.500 and less than or equal to 1.000 μM; d: greater than 1.000 μM; E: no fit
T2 sequence (O15382 28-392): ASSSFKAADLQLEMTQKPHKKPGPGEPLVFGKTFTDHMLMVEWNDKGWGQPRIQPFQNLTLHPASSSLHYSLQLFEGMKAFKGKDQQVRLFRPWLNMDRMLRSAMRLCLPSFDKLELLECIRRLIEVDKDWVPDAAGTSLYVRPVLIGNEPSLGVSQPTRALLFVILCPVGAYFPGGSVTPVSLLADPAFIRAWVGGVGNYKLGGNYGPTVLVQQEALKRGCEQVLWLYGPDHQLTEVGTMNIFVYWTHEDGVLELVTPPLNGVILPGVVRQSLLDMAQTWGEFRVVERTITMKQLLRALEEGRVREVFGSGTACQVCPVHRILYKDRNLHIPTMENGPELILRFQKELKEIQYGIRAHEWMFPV

BCAT2 [2] = biological target: T2, BCAT2; experiment: BCAT2 in vitro enzyme inhibition assay (resazurin/diaphorase-coupled fluorescence); type: biochemical
Outline: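 Coupled fluorescence readout: glutamate formed from L-leucine/α-ketoglutarate transamination drives GDH/NAD/diaphorase reduction of resazurin (Ex 540/Em 590). Human BCAT2 was first exposed 1 h at room temperature to compound, top final 100 μM in 3-fold, 10-point series; substrate reaction ran 1 h before SDS quench, in technical duplicate with DMSO max and enzyme-free min controls.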

Structure (SMILES) | IC50 (hBCAT1) [nM] | BCAT2 Cell Inhibition (BCAT2 [1]) | IC50 (BCAT2 [2]) [nM] | IC50 (BCAT2 [1]) [nM]
CNC(=O)c1ccc2c(c1)nc(-c1ccccn1)n2C1CC(NC(=O)c2ccc(Br)s2)CN(C)C1 (stereo not drawn) [Example 288, 1-(5-(5-bromothiophene-2-carboxamido)-1-methylpiperidin-3-yl)-N-methyl-2-(pyridin-2-yl)-1H-benzo[d]imidazole-5-carboxamide] | > 5000 | E | 500 to 1000 | 
CC(C)Cc1nc2cnc(-c3ccccc3CC#N)cc2n1[C@@H]1CCC[C@H](NC(=O)c2ccc(Cl)s2)C1 [Example 332, 5-chloro-N-((1S,3R)-3-(6-(2-(cyanomethyl)phenyl)-2-isobutyl-1H-imidazo[4,5-c]pyridin-1-yl)cyclohexyl)thiophene-2-carboxamide] | 500 to 1000 |  | 100 to 500 | 500 to 1000
O=C(N[C@H]1CCC[C@@H](n2c(-c3ccccn3)nc3cnc(-n4ccnn4)cc32)C1)c1ccc(Br)s1 [Example 10, 5-bromo-N-((1S,3R)-3-(2-(pyridin-2-yl)-6-(1H-1,2,3-triazol-1-yl)-1H-imidazo[4,5-c]pyridin-1-yl)cyclohexyl)thiophene-2-carboxamide] | 1000 to 5000 |  | ≤ 100 | 500 to 1000
C#Cc1cnc(C(=O)N[C@H]2CCC[C@@H](n3c(-c4ncccc4F)nc4cnc(-n5ccnn5)cc43)C2)s1 [Example 36, 5-ethynyl-N-((1S,3R)-3-(2-(3-fluoropyridin-2-yl)-6-(1H-1,2,3-triazol-1-yl)-1H-imidazo[4,5-c]pyridin-1-yl)cyclohexyl)thiazole-2-carboxamide] | 500 to 1000 |  | ≤ 100 | 100 to 500
O=C(N[C@H]1CCC[C@@H](n2c(CC3CC3)nc3cnc(-c4nc[nH]n4)cc32)C1)c1ncc(Cl)s1 [Example 312, 5-chloro-N-((1S,3R)-3-(2-(cyclopropylmethyl)-6-(1H-1,2,4-triazol-3-yl)-1H-imidazo[4,5-c]pyridin-1-yl)cyclohexyl)thiazole-2-carboxamide] | < 500 |  | ≤ 100 | ≤ 100
O=C(N[C@H]1C[C@H](O)C[C@@H](n2c(-c3ccccc3F)nc3cnc(-c4nc[nH]n4)cc32)C1)c1ccc(Cl)s1 [Example 254, 5-chloro-N-((1R,3S,5S)-3-(2-(2-fluorophenyl)-6-(1H-1,2,4-triazol-3-yl)-1H-imidazo[4,5-c]pyridin-1-yl)-5-hydroxycyclohexyl)thiophene-2-carboxamide] | < 500 |  | ≤ 100 | ≤ 100
O=C(N[C@H]1CCCC[C@@H](n2c(-c3ccccc3F)nc3cnc(-c4nc[nH]n4)cc32)[C@@H]1O)c1ccc(Cl)s1 [Example 405, 5-chloro-N-((1S,2R,3R)-3-(2-(2-fluorophenyl)-6-(1H-1,2,4-triazol-3-yl)-1H-imidazo[4,5-c]pyridin-1-yl)-2-hydroxycycloheptyl)thiophene-2-carboxamide] | < 500 |  | ≤ 100 | ≤ 100
O=C(N[C@H]1CCC[C@@H](n2c(-c3ccccc3F)nc3cnc(-c4nc[nH]n4)cc32)C1)c1ncc(C(F)(F)F)s1 [Example 85, N-((1S,3R)-3-(2-(2-fluorophenyl)-6-(1H-1,2,4-triazol-3-yl)-1H-imidazo[4,5-c]pyridin-1-yl)cyclohexyl)-5-(trifluoromethyl)thiazole-2-carboxamide] | < 500 |  | ≤ 100 | ≤ 100
O=C(N[C@H]1CCC[C@@H](n2c(-c3ccccc3F)nc3cnc(-c4cccnn4)cc32)C1)c1ncc(Cl)s1 [Example 188, 5-chloro-N-((1S,3R)-3-(2-(2-fluorophenyl)-6-(pyridazin-3-yl)-1H-imidazo[4,5-c]pyridin-1-yl)cyclohexyl)thiazole-2-carboxamide] | 1000 to 5000 |  | ≤ 100 | 100 to 500
COCc1nc2cnc(-c3nc[nH]n3)cc2n1[C@@H]1CCC[C@H](NC(=O)c2ncc(Cl)s2)C1 [Example 91, 5-chloro-N-[(1S,3R)-3-[2-(methoxymethyl)-6-(1H-1,2,4-triazol-3-yl)imidazo[4,5-c]pyridin-1-yl]cyclohexyl]thiazole-2-carboxamide] | 1000 to 5000 |  | 100 to 500 | > 1000

Further lines, results first:

IC50 (hBCAT1) [nM] | BCAT2 Cell Inhibition (BCAT2 [1]) | IC50 (BCAT2 [2]) [nM] | IC50 (BCAT2 [1]) [nM] | Structure (SMILES)
< 500 |  | ≤ 100 | ≤ 100 | Cc1csc(-c2cc3c(cn2)nc(CC(C)C)n3[C@@H]2CCC[C@H](NC(=O)c3ncc(Cl)s3)C2)n1 [Example 326, 5-chloro-N-((1S,3R)-3-(2-isobutyl-6-(4-methylthiazol-2-yl)-1H-imidazo[4,5-c]pyridin-1-yl)cyclohexyl)thiazole-2-carboxamide]
< 500 |  | ≤ 100 | 100 to 500 | CC(C)C(O)c1nc2cnc(-c3nc[nH]n3)cc2n1[C@@H]1CCC[C@H](NC(=O)c2ncc(Cl)s2)C1 (single isomer, unassigned) [Example 183]
< 500 |  | ≤ 100 | ≤ 100 | CC(C)Cc1nc2cnc(-n3nccn3)cc2n1[C@@H]1CCC[C@H](NC(=O)c2ccc(Cl)s2)C1 [Example 74, 5-chloro-N-((1S,3R)-3-(2-isobutyl-6-(2H-1,2,3-triazol-2-yl)-1H-imidazo[4,5-c]pyridin-1-yl)cyclohexyl)thiophene-2-carboxamide]
1000 to 5000 |  | 100 to 500 | > 1000 | O=C(N[C@H]1CCC[C@@H](n2c(-c3ccccn3)nc3cnc(-n4ccnn4)cc32)C1)c1ncc(Br)s1 [Example 32, 5-bromo-N-((1S,3R)-3-(2-(pyridin-2-yl)-6-(1H-1,2,3-triazol-1-yl)-1H-imidazo[4,5-c]pyridin-1-yl)cyclohexyl)thiazole-2-carboxamide]
< 500 |  | ≤ 100 | ≤ 100 | CC(C)(C)Cc1nc2cnc(-c3ccccn3)cc2n1[C@@H]1CCC[C@H](NC(=O)c2ncc(Cl)s2)[C@H]1O [Example 389, 5-chloro-N-((1S,2R,3R)-2-hydroxy-3-(2-neopentyl-6-(pyridin-2-yl)-1H-imidazo[4,5-c]pyridin-1-yl)cyclohexyl)thiazole-2-carboxamide]
< 500 |  | ≤ 100 | ≤ 100 | CC1(Cc2nc3cnc(-c4nc[nH]n4)cc3n2[C@@H]2CCC[C@H](NC(=O)c3ncc(Cl)s3)C2)CC1 [Example 379, 5-chloro-N-((1S,3R)-3-(2-((1-methylcyclopropyl)methyl)-6-(1H-1,2,4-triazol-3-yl)-1H-imidazo[4,5-c]pyridin-1-yl)cyclohexyl)thiazole-2-carboxamide]
< 500 |  | ≤ 100 | ≤ 100 | O=C(N[C@H]1CCC[C@@H](n2c(-c3ccccc3F)nc3cnc(-c4ncn(C(F)F)n4)cc32)C1)c1ncc(Cl)s1 [Example 378, 5-chloro-N-((1S,3R)-3-(6-(1-(difluoromethyl)-1H-1,2,4-triazol-3-yl)-2-(2-fluorophenyl)-1H-imidazo[4,5-c]pyridin-1-yl)cyclohexyl)thiazole-2-carboxamide]
< 500 |  | ≤ 100 | ≤ 100 | CO[C@H]1C[C@H](NC(=O)c2ncc(Cl)s2)C[C@H](n2c(CC(C)C)nc3cnc(-c4ncccn4)cc32)C1 [Example 435, 5-chloro-N-((1R,3S,5S)-3-(2-isobutyl-6-(pyrimidin-2-yl)-1H-imidazo[4,5-c]pyridin-1-yl)-5-methoxycyclohexyl)thiazole-2-carboxamide]
500 to 1000 |  | ≤ 100 | 100 to 500 | O=C(N[C@H]1CCC[C@@H](n2c(C3CCCCO3)nc3cnc(-c4nc[nH]n4)cc32)C1)c1ncc(Cl)s1 (single isomer, unassigned) [Example 89]
500 to 1000 |  | ≤ 100 | 100 to 500 | CC(C)Cc1nc2cnc(-c3ncn(C)n3)cc2n1[C@@H]1CCC[C@H](NC(=O)c2ncc(Cl)s2)C1 [Example 358, 5-chloro-N-((1S,3R)-3-(2-isobutyl-6-(1-methyl-1H-1,2,4-triazol-3-yl)-1H-imidazo[4,5-c]pyridin-1-yl)cyclohexyl)thiazole-2-carboxamide]
